# Assay results from PubChem BioAssay (NCI).
#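 The concentration for 50% growth inhibition is given as GI50. Definition used: TGI = concentration required for complete inhibition of growth.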
# What was measured:
# Assay in all cases: NCI-60 cell line screen, 384-well format
# [1] = test system: A498 renal
# [2] = test system: A549 NSCLC
# [3] = test system: ACHN renal
# [4] = test system: BT-549 breast
# [5] = test system: CAKI-1 renal
# [6] = test system: COLO 205 colon
# [7] = test system: DU-145 prostate
# [8] = test system: EKVX NSCLC
# [9] = test system: HCC-2998 colon
# [10] = test system: HCT-116 colon
# [11] = test system: HCT-15 colon
# [12] = test system: HL-60(TB) leukemia
# [13] = test system: HOP-62 NSCLC
# [14] = test system: HOP-92 NSCLC
# [15] = test system: HS 578T breast
# [16] = test system: HT29 colon
# [17] = test system: IGROV1 ovarian
# [18] = test system: KM12 colon
# [19] = test system: LOX IMVI melanoma
# [20] = test system: M14 melanoma
# [21] = test system: MALME-3M melanoma
# [22] = test system: MCF7 breast
# [23] = test system: MDA-MB-231 breast
# [24] = test system: MDA-MB-435 melanoma
# [25] = test system: MDA-MB-468 breast
# [26] = test system: MOLT-4 leukemia
# [27] = test system: NCI-H226 lung
# [28] = test system: NCI-H23 lung
# [29] = test system: NCI-H322M lung
# [30] = test system: NCI-H460 NSCLC
# [31] = test system: NCI-H522 lung
# [32] = test system: NCI/ADR-RES ovarian
# [33] = test system: OVCAR-3 ovarian
# [34] = test system: OVCAR-4 ovarian
# [35] = test system: OVCAR-5 ovarian
# [36] = test system: OVCAR-8 ovarian
# [37] = test system: PC-3 prostate
# [38] = test system: RPMI-8226 leukemia
# [39] = test system: RXF 393 renal
# [40] = test system: SF-268 CNS
# [41] = test system: SF-295 CNS
# [42] = test system: SF-539 CNS
# [43] = test system: SK-MEL-28 melanoma
# [44] = test system: SK-MEL-5 melanoma
# [45] = test system: SK-OV-3 ovarian
# [46] = test system: SN12C renal
# [47] = test system: SNB-19 CNS
# [48] = test system: SNB-75 CNS
# [49] = test system: SR leukemia
# [50] = test system: T-47D breast
# [51] = test system: TK-10 renal
# [52] = test system: U251 glioblastoma
# [53] = test system: UACC-257 melanoma
# [54] = test system: UACC-62 melanoma
smiles,measurement,setting,value
FC(F)(F)c1cc(-c2ncn(/C=C\c3nnco3)n2)cc(C(F)(F)F)c1,GI50,[1],< 10 nM
same,TGI,[1],82.2 nM
same,GI50,[2],10.1 nM
same,TGI,[2],11300 nM
same,GI50,[3],67.3 nM
same,TGI,[3],8770 nM
same,GI50,[4],< 10 nM
same,TGI,[4],23.8 nM
same,GI50,[5],< 10 nM
same,TGI,[5],18900 nM
same,GI50,[6],< 10 nM
same,TGI,[6],1980 nM
same,GI50,[7],119 nM
same,TGI,[7],514 nM
same,GI50,[8],184 nM
same,TGI,[8],9920 nM
same,GI50,[9],33.5 nM
same,TGI,[9],334 nM
same,GI50,[10],< 10 nM
same,TGI,[10],350 nM
same,GI50,[11],34.4 nM
same,TGI,[11],493 nM
same,GI50,[12],< 10 nM
same,TGI,[12],54.4 nM
same,GI50,[13],31.8 nM
same,TGI,[13],231 nM
same,GI50,[14],130 nM
same,TGI,[14],11000 nM
same,GI50,[15],< 10 nM
same,TGI,[15],878 nM
same,GI50,[16],< 10 nM
same,TGI,[16],719 nM
same,GI50,[17],104 nM
same,TGI,[17],2890 nM
same,GI50,[18],139 nM
same,TGI,[18],3050 nM
same,GI50,[19],42.3 nM
same,TGI,[19],206 nM
same,GI50,[20],108 nM
same,TGI,[20],348 nM
same,GI50,[21],123 nM
same,TGI,[21],425 nM
same,GI50,[22],19.1 nM
same,TGI,[22],> 100000 nM
same,GI50,[23],< 10 nM
same,TGI,[23],142 nM
same,GI50,[24],20.7 nM
same,TGI,[24],82.5 nM
same,GI50,[25],154 nM
same,TGI,[25],381 nM
same,GI50,[26],< 10 nM
same,TGI,[26],< 10 nM
same,GI50,[27],< 10 nM
same,TGI,[27],17 nM
same,GI50,[28],< 10 nM
same,TGI,[28],1950 nM
same,GI50,[29],50.6 nM
same,TGI,[29],2580 nM
same,GI50,[30],< 10 nM
same,TGI,[30],79.5 nM
same,GI50,[31],< 10 nM
same,TGI,[31],118 nM
same,GI50,[32],< 10 nM
same,TGI,[32],1330 nM
same,GI50,[33],< 10 nM
same,TGI,[33],96.6 nM
same,GI50,[34],179 nM
same,TGI,[34],662 nM
same,GI50,[35],64.2 nM
same,TGI,[35],588 nM
same,GI50,[36],< 10 nM
same,TGI,[36],1210 nM
same,GI50,[37],< 10 nM
same,TGI,[37],38.1 nM
same,GI50,[38],< 10 nM
same,TGI,[38],< 10 nM
same,GI50,[39],< 10 nM
same,TGI,[39],706 nM
same,GI50,[40],< 10 nM
same,TGI,[40],558 nM
same,GI50,[41],16.9 nM
same,TGI,[41],2300 nM
same,GI50,[42],< 10 nM
same,TGI,[42],11.2 nM
same,GI50,[43],33.8 nM
same,TGI,[43],386 nM
same,GI50,[44],73.6 nM
same,TGI,[44],252 nM
same,GI50,[45],< 10 nM
same,TGI,[45],12500 nM
same,GI50,[46],194 nM
same,TGI,[46],1510 nM
same,GI50,[47],58.3 nM
same,TGI,[47],1130 nM
same,GI50,[48],< 10 nM
same,TGI,[48],113 nM
same,GI50,[49],< 10 nM
same,TGI,[49],< 10 nM
same,GI50,[50],190 nM
same,TGI,[50],6280 nM
same,GI50,[51],16.4 nM
same,TGI,[51],143 nM
same,GI50,[52],19.5 nM
same,TGI,[52],190 nM
same,GI50,[53],239 nM
same,TGI,[53],2470 nM
same,GI50,[54],12.5 nM
same,TGI,[54],242 nM
